The values below come from patent US8163756B2 (priority 2004, dated 2012).

pIC50: −log10 of the molar value.

Type in all cases: biochemical
For one assay, the target named is KDR kinase (Homo sapiens, UniProt P35968, DEL940-989/E990V). Kind of assay: KDR kinase assay K1 (pyruvate kinase/lactate dehydrogenase coupled, spectrophotometric). The following applies: Method K1; read-out: KDR Data (IC50). On the procedure: (§1) IC50 values were calculated from a series of percent inhibition values determined at a range of inhibitor concentrations using software routines as implemented in the GraphPad Prism software package.

For assay [1], the target named is phosphorylated p-38-alpha kinase (Homo sapiens, UniProt Q16539). Kind of assay: P-38 alpha kinase assay P1 (coupled spectrophotometric, 2 h pre-incubation). The note with it: method P1 (2 h pre-incubation); read-out: P-38 Data.
Another assay concerns the target B-Raf(V599E) kinase (Homo sapiens, UniProt P15056, V600E). The assay can be described thus: B-Raf(V599E) kinase assay B1 (construct 1, MEK1 substrate, coupled spectrophotometric). The protocol:
The test compounds were incubated with the reaction mixtureat 30° C. for 2 h. […] The reaction rate was calculated using the […] time frame. […] IC50 values were calculated from a series of percent inhibition values determined at a range of inhibitor concentrations using software routines as implemented in the GraphPad Prism software package.

Another assay concerns the target T1, Abl kinase (Homo sapiens, UniProt P00519).
T1 sequence (P00519 229-512): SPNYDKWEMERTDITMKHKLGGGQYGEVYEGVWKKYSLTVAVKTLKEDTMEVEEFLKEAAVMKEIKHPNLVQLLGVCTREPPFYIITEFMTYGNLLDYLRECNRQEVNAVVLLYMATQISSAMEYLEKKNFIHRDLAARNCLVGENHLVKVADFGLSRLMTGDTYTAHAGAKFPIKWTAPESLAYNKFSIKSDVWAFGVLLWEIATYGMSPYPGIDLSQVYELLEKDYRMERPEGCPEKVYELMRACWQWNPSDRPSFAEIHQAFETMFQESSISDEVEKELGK
Kind of assay: Abl kinase assay A1 (pyruvate kinase/lactate dehydrogenase coupled, spectrophotometric). The following applies: Method A1; read-out: Abl Data (IC50). On the procedure:
as §1

Chain of B-Raf(V599E) kinase (P15056 with tags, fused parts or gaps V600E): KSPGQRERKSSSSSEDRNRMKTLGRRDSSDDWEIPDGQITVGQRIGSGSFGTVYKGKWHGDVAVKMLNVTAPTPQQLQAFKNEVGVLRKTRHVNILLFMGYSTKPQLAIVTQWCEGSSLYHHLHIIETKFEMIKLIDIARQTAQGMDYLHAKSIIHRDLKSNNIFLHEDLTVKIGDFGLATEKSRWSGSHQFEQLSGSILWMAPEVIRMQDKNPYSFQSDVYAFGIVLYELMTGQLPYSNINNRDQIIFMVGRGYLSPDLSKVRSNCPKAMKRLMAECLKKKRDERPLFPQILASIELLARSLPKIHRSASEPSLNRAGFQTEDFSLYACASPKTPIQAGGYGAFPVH
Chain of KDR kinase (P35968 with tags, fused parts or gaps DEL940-989/E990V): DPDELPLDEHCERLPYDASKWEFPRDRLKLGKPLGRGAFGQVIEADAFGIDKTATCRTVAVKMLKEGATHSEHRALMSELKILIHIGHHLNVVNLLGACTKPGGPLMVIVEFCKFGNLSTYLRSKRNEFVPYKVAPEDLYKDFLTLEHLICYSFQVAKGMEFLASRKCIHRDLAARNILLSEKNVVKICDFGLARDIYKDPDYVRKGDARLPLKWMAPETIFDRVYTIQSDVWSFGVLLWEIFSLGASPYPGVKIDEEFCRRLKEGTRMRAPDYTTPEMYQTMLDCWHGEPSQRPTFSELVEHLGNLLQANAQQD
Chain of phosphorylated p-38-alpha kinase (Q16539 1-360 isoform Q16539-2): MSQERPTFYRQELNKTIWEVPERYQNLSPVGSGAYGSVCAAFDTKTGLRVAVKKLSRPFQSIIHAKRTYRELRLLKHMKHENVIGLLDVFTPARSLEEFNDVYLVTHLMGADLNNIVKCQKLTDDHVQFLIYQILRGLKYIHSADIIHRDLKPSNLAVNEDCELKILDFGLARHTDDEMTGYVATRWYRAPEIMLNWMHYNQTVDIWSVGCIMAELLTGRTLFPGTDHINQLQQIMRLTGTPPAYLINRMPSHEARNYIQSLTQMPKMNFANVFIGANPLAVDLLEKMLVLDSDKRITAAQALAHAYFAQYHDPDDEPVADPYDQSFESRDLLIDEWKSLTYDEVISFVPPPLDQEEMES

For the compound `CNC(=O)C1NCCc2cc(-n3nc(C(C)(C)C)cc3NC(=O)Nc3cccc(Cl)c3Cl)ccc21` (centres unmarked) [Example 204, 1-(3-t-butyl-1-(1-(methylcarbamoyl)-1,2,3,4-tetrahydroisoquinolin-6-yl)-1H-pyrazol-5-yl)-3-(2,3-dichlorophenyl)urea], the pIC50 was 7.00 on KDR kinase and 8.05 in assay [1].

As to `CC(C)(C)c1cc(NC(=O)Nc2cccc(Cl)c2Cl)n(-c2cccc(Cn3c(=O)[nH]n(-c4ccccc4)c3=O)c2)n1` [Example 273, 1-(3-t-butyl-1-{3-[(3,5-dioxo-1-phenyl-1,2,4-triazolidin-4-yl)methyl]phenyl}-1H-pyrazol-5-yl)-3-(2,3-dichlorophenyl)urea], the results for the pIC50 (on KDR kinase; in assay [1]; at B-Raf(V599E) kinase) were 5.77, 7.47 and 8.06, respectively.

In the case of `CC(C)(C)c1cc(NC(=O)Nc2cccc(Oc3ccccc3)c2)n(-c2ccc3c(c2)CCNC3)n1` [Example 140, 1-(3-t-butyl-1-(1,2,3,4-tetrahydro-isoquinolin-6-yl)-1H-pyrazol-5-yl)-3-(3-phenoxyphenyl)urea], the pIC50 is 6.92 on Abl kinase, 5.64 on KDR kinase and 8.34 against B-Raf(V599E) kinase.

Consider `CC(C)(C)c1cc(NC(=O)Nc2cccc(Cl)c2Cl)n(-c2cccc(CCN)c2)n1` [Example 39, 1-{1-[3-(2-aminoethyl)phenyl]-3-t-butyl-1H-pyrazol-5-yl}-3-(2,3-dichlorophenyl)urea], for which the results for the pIC50 on Abl kinase, at KDR kinase and on B-Raf(V599E) kinase were 6.46, 6.62 and 8.15, respectively.

For the compound `CC(C)(C)c1cc(NC(=O)Nc2cccc(Cl)c2Cl)n(-c2cccc(CN)c2)n1` [Example 42, 1-{1-[3-(aminomethyl)phenyl]-3-t-butyl-1H-pyrazol-5-yl}-3-(2,3-dichloro-phenyl)urea], the pIC50 on Abl kinase is 5.82; at KDR kinase, 6.44; against B-Raf(V599E) kinase, 8.00.

In the case of `CC(C(=O)O)c1ccc(-n2nc(C(C)(C)C)cc2NC(=O)Nc2cccc(Cl)c2Cl)cc1` (centres unmarked) [Example 202, 2-(4-(3-t-butyl-5-(3-(2,3-dichlorophenyl)ureido)-1H-pyrazol-1-yl)phenyl)propanoic acid], the pIC50 on KDR kinase was 6.64; in assay [1], 7.92.

In the case of `CC(C)(C)c1cc(NC(=O)Nc2cccc(Cl)c2Cl)n(-c2ccc3c(c2)CCN3)n1` [Example 106, 1-(3-t-butyl-1-(indolin-5-yl)-1H-pyrazol-5-yl)-3-(2,3-dichlorophenyl)urea], the pIC50 at KDR kinase was 6.92; in assay [1], 7.92; on B-Raf(V599E) kinase, 8.44.

Take `CC(C)(C)c1cc(NC(=O)Nc2cccc(Cl)c2Cl)n(-c2ccc3c(c2)CCN(S(C)(=O)=O)CC3)n1` [Example 336, 1-(3-t-butyl-1-(3-(methylsulfonyl)-2,3,4,5-tetrahydro-1H-benzo[d]azepin-7-yl)-1 H-pyrazol-5-yl)-3-(2,3-dichlorophenyl)urea]: the results for the pIC50 (at KDR kinase; in assay [1]; against B-Raf(V599E) kinase) were 6.77, 7.96 and 8.70, respectively.

In the case of `CC(C)(C)c1cc(NC(=O)Nc2ccc(Cl)cc2)n(-c2cc(CO)c3ccccc3c2)n1` [Example 61], the pIC50 on Abl kinase is 6.09; on KDR kinase, 5.82; on B-Raf(V599E) kinase, 7.74.

Consider `CC(C)(C)c1cc(NC(=O)Nc2cccc(Cl)c2Cl)n(-c2ccc3c(c2)CN(C(=N)N)CC3)n1` [Example 130, 1-[3-t-butyl-1-(2-carbamimidoyl-1,2,3,4-tetrahydroisoquinolin-7-yl)-1H-pyrazol-5-yl]-3-(2,3-dichlorophenyl)urea], for which the pIC50 at Abl kinase is 6.64; at KDR kinase, 6.49.

In the case of `CCOC(=O)CCc1cccc(-n2nc(C(C)(C)C)cc2NC(=O)Nc2cccc(Cl)c2Cl)c1` [Example 264, 3-(3-{3-t-butyl-5-[3-(2,3-dichlorophenyl)ureido]-1H-pyrazol-1-yl}phenyl)propionic acid ethyl ester], the pIC50 at KDR kinase is 6.85; in assay [1], 7.09; against B-Raf(V599E) kinase, 8.14.

As to `CC(C)(C)c1cc(NC(=O)Nc2cccc(Cl)c2Cl)n(-c2ccc(CO)cc2)n1` [Example 19, 1-{3-t-butyl-1-[4-(hydroxymethyl)-phenyl]-1H-pyrazol-5-yl}-3-(2,3-dichlorophenyl)urea], the results for the pIC50 on Abl kinase, on KDR kinase and against B-Raf(V599E) kinase were 6.21, 6.15 and 8.32, respectively.

For `CC1(O)CCN(C(=O)Cc2ccc(-n3nc(C(C)(C)C)cc3NC(=O)Nc3cccc(Cl)c3Cl)cc2)CC1` [Example 496, 1-(3-t-butyl-1-{4-[2-(4-hydroxy-4-methylpiperidin-1-yl)-2-oxoethyl]phenyl}-1H-pyrazol-5-yl)-3-(2,3-dichlorophenyl)urea], the pIC50 at KDR kinase was 6.33; in assay [1], 8.30; against B-Raf(V599E) kinase, 7.59.

For the compound `COc1ccc(-n2nc(C(C)(C)C)cc2NC(=O)Nc2cccc(F)c2F)cc1` [Example 241, 1-[3-t-butyl-1-(4-methoxyphenyl)-1H-pyrazol-5-yl]-3-(2,3-difluorophenyl)urea], the figures for the pIC50 (on KDR kinase; in assay [1]; against B-Raf(V599E) kinase) were 6.24, 6.66 and 7.62, respectively.

In the case of `CC(C)(C)c1cc(NC(=O)Nc2ccccc2)n(-c2ccc3c(c2)CCC(=O)N3)n1` [Example 319, 1-(3-t-butyl-1-(2-oxo-1,2,3,4-tetrahydro-quinolin-6-yl)-1H-pyrazol-5-yl)-3-phenylurea], the results for the pIC50 at KDR kinase and at B-Raf(V599E) kinase were 5.37 and 7.49, respectively.

On to `CC(C(N)=O)c1ccc(-n2nc(C(C)(C)C)cc2NC(=O)Nc2cccc(Cl)c2Cl)cc1` (centres unmarked) [Example 203, 1-(1-(4-(1-amino-1-oxopropan-2-yl)phenyl)-3-t-butyl-1H-pyrazol-5-yl)-3-(2,3-dichlorophenyl)urea], for which the pIC50 on KDR kinase was 6.80; in assay [1], 7.77.

As for `CC(C)(C)c1cc(NC(=O)Nc2cccc(Cl)c2)n(-c2cccc(CCN)c2)n1` [Example 257, 1-{1-[3-(2-aminoethyl)phenyl]-3-t-butyl-1H-pyrazol-5-yl}-3-(3-chlorophenyl)urea], the values for the pIC50 on KDR kinase and against B-Raf(V599E) kinase were 5.18 and 7.21, respectively.

Take `CC(C)(C)c1cc(NC(=O)Nc2cccc(Cl)c2Cl)n(-c2ccc3c(c2)CC(C(=O)O)NC3)n1` (centres unmarked) [Example 205]: the results for the pIC50 (at KDR kinase; in assay [1]) were 6.55 and 7.54, respectively.

For `CC(C)(C)c1cc(NC(=O)Nc2cccc(F)c2F)n(-c2cccc(CO)c2)n1` [Example 220, 1-{3-t-butyl-1-[3-(hydroxymethyl)phenyl]-1H-pyrazol-5-yl}-3-(2,3-difluorophenyl)urea], the pIC50 on KDR kinase is 6.02; on B-Raf(V599E) kinase, 7.48.

Take `CC(Cc1cccc(-n2nc(C(C)(C)C)cc2NC(=O)Nc2cccc(Cl)c2Cl)c1)C(=O)O` (centres unmarked) [Example 267, 3-(3-{3-t-butyl-5-[3-(2,3-dichlorophenyl)ureido]-1H-pyrazol-1-yl}-phenyl)-2-methylpropanoic acid]: the results for the pIC50 (at KDR kinase; in assay [1]; at B-Raf(V599E) kinase) were 6.26, 7.92 and 8.10, respectively.

Take `CC(C)(C)c1cc(NC(=O)Nc2cccc(Cl)c2Cl)n(-c2cccc(C#N)c2)n1` [Example 9]: the pIC50 is 6.74 on Abl kinase, 7.33 on KDR kinase and 8.34 against B-Raf(V599E) kinase.

As to `CC(C)(C)c1cc(NC(=O)Nc2cc(F)c(F)cc2F)n(-c2cc(CNC(N)=O)c3ccccc3c2)n1` [Example 297], the results for the pIC50 at KDR kinase and on B-Raf(V599E) kinase were 6.57 and 8.49, respectively.

As to `CC(C)(C)c1cc(NC(=O)Nc2cccc(F)c2F)n(-c2ccc3c(c2)CCN3)n1` [Example 307, 1-(3-t-butyl-1-(indolin-5-yl)-1H-pyrazol-5-yl)-3-(2,3-difluorophenyl)urea], the pIC50 at KDR kinase was 6.14; against B-Raf(V599E) kinase, 8.00.

For `CC(C)(C)c1cc(NC(=O)Nc2cccc(Cl)c2Cl)n(-c2ccc(CC(=O)O)cc2)n1` [Example 383], the pIC50 at KDR kinase is 6.55; in assay [1], 8.15; against B-Raf(V599E) kinase, 8.09.

For `CC(C)(C)c1cc(NC(=O)Nc2cccc(Cl)c2Cl)n(-c2ccc(CC(=O)N3CCS(=O)(=O)CC3)cc2)n1` [Example 495], the pIC50 is 5.82 at KDR kinase and 7.26 at B-Raf(V599E) kinase.

Consider `CC(C)(C)c1cc(NC(=O)Nc2cccc(Cl)c2Cl)n(-c2cccc(C(=N)NO)c2)n1` [Example 43, 1-{1-[3-(N-hydroxycarbamimidoyl)phenyl]-3-t-butyl-1H-pyrazol-5-yl}-3-(2,3-dichlorophenyl)-urea], for which the pIC50 at KDR kinase was 6.44; in assay [1], 7.89; against B-Raf(V599E) kinase it was 8.37.

Consider `CC(C)(C)c1cc(NC(=O)Nc2ccc(F)c(F)c2F)n(-c2ccc3ncccc3c2)n1` [Example 285, 1-(3-t-butyl-(quinolin-6-yl)-1H-pyrazol-5-yl)-3-(2,3,4-trifluorophenyl)urea], for which the pIC50 on KDR kinase is 6.42; at B-Raf(V599E) kinase, 8.29.

Turning to `CC(C)(C)c1cc(NC(=O)Nc2cccc(Cl)c2Cl)n(-c2ccc3c(c2)CCN3S(=O)(=O)C(F)(F)F)n1` [Example 201, 1-(3-t-butyl-1-(1-(trifluoromethylsulfonyl)indolin-5-yl)-1H-pyrazol-5-yl)-3-(2,3-dichlorophenyl)urea], the results for the pIC50 (at KDR kinase; in assay [1]) were 6.89 and 6.82, respectively.
